Experimental data from PubChem BioAssay AID328 (DTP/NCI, 2004).
Where “and” joins values, the source holds several entries; their conditions need not be identical. Identical values can stand only once. Inconclusive results and toxic doses are left out.

Tested on: BDF1 mice, P388 leukemia ip, median survival T/C
Assay: NCI In Vivo Anticancer Drug Screen. Data for tumor model P388 Leukemia (intraperitoneal) in B6D2F1 (BDF1) mice
Conditions: endpoint: median survival time, higher = longer survival
Summary of the method: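 Steps: implant the tumour, treat one group with compound and another with vehicle, record survival, then divide treated by control.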

[1] = dose: 100.0 mg/kg/injection, schedule: Q01DX009 (ip), vehicle: Klucel (hydroxypropylcellulose) (HPC)
[2] = dose: 100.0 mg/kg/injection, schedule: Q04DX003 (ip), vehicle: Klucel (hydroxypropylcellulose) (HPC)
[3] = dose: 200.0 mg/kg/injection, schedule: Q01DX009 (ip), vehicle: Klucel (hydroxypropylcellulose) (HPC)
[4] = dose: 200.0 mg/kg/injection, schedule: Q04DX003 (ip), vehicle: Klucel (hydroxypropylcellulose) (HPC)
[5] = dose: 400.0 mg/kg/injection, schedule: Q01DX009 (ip), vehicle: Klucel (hydroxypropylcellulose) (HPC)
[6] = dose: 400.0 mg/kg/injection, schedule: Q04DX003 (ip), vehicle: Klucel (hydroxypropylcellulose) (HPC)
[7] = dose: 100.0 mg/kg/injection, schedule: Q01DX009 (ip), vehicle: saline with Tween-80
[8] = dose: 100.0 mg/kg/injection, schedule: Q04DX003 (ip), vehicle: saline with Tween-80
[9] = dose: 200.0 mg/kg/injection, schedule: Q01DX009 (ip), vehicle: saline with Tween-80
[10] = dose: 200.0 mg/kg/injection, schedule: Q04DX003 (ip), vehicle: saline with Tween-80
[11] = dose: 400.0 mg/kg/injection, schedule: Q01DX009 (ip), vehicle: saline with Tween-80
[12] = dose: 400.0 mg/kg/injection, schedule: Q04DX003 (ip), vehicle: saline with Tween-80
[13] = dose: 100.0 mg/kg/injection, schedule: Q04DX003 (ip), vehicle: saline
[14] = dose: 200.0 mg/kg/injection, schedule: Q04DX003 (ip), vehicle: saline
[15] = dose: 400.0 mg/kg/injection, schedule: Q04DX003 (ip), vehicle: saline
[16] = dose: 12.5 mg/kg/injection, schedule: Q01DX009 (ip), vehicle: saline with Tween-80

SMILES: O=C1c2ccccc2C(=O)N1CNc1ccc(Cc2ccc(NCN3C(=O)c4ccccc4C3=O)c(Cl)c2)cc1Cl
- T/C [1]: 100 % of control
- T/C [2]: 100 % of control
- T/C [3]: 100 % of control
- T/C [4]: 95 % of control
- T/C [5]: 90 % of control
- T/C [6]: 95 % of control

SMILES: Cc1ccc(N2C(=O)CC(Sc3ccccc3N)C2=O)cc1Cl (centres undefined)
- T/C [7]: 110 % of control
- T/C [8]: 95 % of control
- T/C [9]: 90 % of control
- T/C [10]: 109 % of control
- T/C [11]: 105 % of control
- T/C [12]: 109 % of control

SMILES: CCCCCCCCCCCC(=O)N(C)C
- T/C [1]: 105 % of control
- T/C [2]: 104 % of control
- T/C [3]: 105 % of control
- T/C [4]: 100 % of control
- T/C [6]: 100 % of control

SMILES: C[C@]1(O)CC[C@H]2[C@@H]3CCC4=CC(=O)CCC4=C3C=C[C@@]21C
- T/C (dose: 12.5 mg/kg/injection, schedule: Q01DX009 (ip), vehicle: Klucel (hydroxypropylcellulose) (HPC)): 87 % of control
- T/C (dose: 25.0 mg/kg/injection, schedule: Q01DX009 (ip), vehicle: Klucel (hydroxypropylcellulose) (HPC)): 91 % of control
- T/C (dose: 50.0 mg/kg/injection, schedule: Q01DX009 (ip), vehicle: Klucel (hydroxypropylcellulose) (HPC)): 91 % of control
- T/C [1]: 104 % of control
- T/C [2]: 104 % of control
- T/C [3]: 109 % of control
- T/C [4]: 104 % of control

SMILES: Cc1n(CC(C)C)c2c([n+]1C)C(=O)c1ccccc1C2=O
- T/C (dose: 0.25 mg/kg/injection, schedule: Q01DX010 (ip), vehicle: saline): 90 % of control
- T/C (dose: 0.5 mg/kg/injection, schedule: Q01DX010 (ip), vehicle: saline): 90 % of control
- T/C (dose: 1.0 mg/kg/injection, schedule: Q01DX009 (ip), vehicle: saline): 105 % of control
- T/C (dose: 1.0 mg/kg/injection, schedule: Q01DX010 (ip), vehicle: saline): 90 % of control
- T/C (dose: 2.0 mg/kg/injection, schedule: Q01DX009 (ip), vehicle: saline): 120 % of control
- T/C (dose: 2.0 mg/kg/injection, schedule: Q01DX010 (ip), vehicle: saline): 120 % of control

SMILES: COc1ccc(CC(=O)NCCN(CCN(CCO)C(=O)Cc2ccc(OC)cc2)C(=O)Cc2ccc(OC)cc2)cc1
- T/C [7]: 105 % of control
- T/C [8]: 120 % of control
- T/C [9]: 95 % of control
- T/C [10]: 100 % of control
- T/C [11]: 100 % of control
- T/C [12]: 105 % of control

SMILES: O=C(/C=C\c1ccc2c(c1)OCO2)/C=C/c1ccc2c(c1)OCO2
- T/C [1]: 104 % of control
- T/C (dose: 100.0 mg/kg/injection, schedule: Q04DX003 (ip), vehicle: saline sonified): 100 % of control
- T/C [3]: 100 % of control
- T/C (dose: 200.0 mg/kg/injection, schedule: Q04DX003 (ip), vehicle: saline sonified): 109 % of control
- T/C [5]: 95 % of control
- T/C (dose: 400.0 mg/kg/injection, schedule: Q04DX003 (ip), vehicle: saline sonified): 100 % of control

SMILES: O=C1c2ccccc2C(=O)N1CNc1cccc(NCN2C(=O)c3ccccc3C2=O)c1
- T/C (dose: 100.0 mg/kg/injection, schedule: Q01DX001 (ip), vehicle: saline): 100 % of control
- T/C [13]: 104 % of control
- T/C (dose: 200.0 mg/kg/injection, schedule: Q01DX001 (ip), vehicle: saline): 100 % of control
- T/C [14]: 104 % of control
- T/C (dose: 400.0 mg/kg/injection, schedule: Q01DX001 (ip), vehicle: saline): 90 % of control
- T/C [15]: 100 % of control

SMILES: CC1=CC(=O)C=CC1(C)C(Cl)Cl (centres undefined)
- T/C [8]: 90 % of control
- T/C [10]: 105 % of control
- T/C [12]: 100 % of control

SMILES: Nc1ccn([C@@H](C=O)O[C@@H](C=O)CO)c(=O)n1
- T/C (dose: 8.8 mg/kg/injection, schedule: Q01DX009 (ip), vehicle: saline): 115 % of control
- T/C (dose: 66.0 mg/kg/injection, schedule: Q04DX003 (ip), vehicle: saline): 100 % of control
- T/C [13]: 112 % of control
- T/C (dose: 150.0 mg/kg/injection, schedule: Q04DX003 (ip), vehicle: saline): 120 % of control
- T/C [14]: 150 % of control
- T/C [15]: 181 % of control

SMILES: Clc1cc(CBr)c(CBr)cc1Cl
- T/C [16]: 100 % of control

SMILES: CC[C@](C)(O)C(=O)O[C@H]1C(=O)O[C@@H]2C[C@H]3C(C)=C[C@H](O)[C@@H](O)[C@]3(C)[C@H]3[C@@]4(O)OC[C@]32[C@@H]1[C@@H](C)[C@H]4O
- T/C (dose: 1.0 mg/kg/injection, schedule: Q01DX010 (ip), vehicle: other): 113 % of control
- T/C (dose: 4.0 mg/kg/injection, schedule: Q01DX010 (ip), vehicle: other): 113 % of control

SMILES: CN(C)c1ccc(/C=C/c2ccccn2)cc1
- T/C [16]: 95 % of control
- T/C (dose: 25.0 mg/kg/injection, schedule: Q01DX009 (ip), vehicle: saline with Tween-80): 95 % of control

SMILES: Cn1cnc([N+](=O)[O-])c1Sc1nc(N)nc2c1ncn2C1CC(O)C(CO)O1 (centres undefined)
- T/C (dose: 6.25 mg/kg/injection, schedule: Q01DX005 (ip), vehicle: Klucel (hydroxypropylcellulose) (HPC)): 155 % of control
- T/C (dose: 6.25 mg/kg/injection, schedule: Q01DX009 (ip), vehicle: saline): 161 % of control
- T/C (dose: 25.0 mg/kg/injection, schedule: Q01DX009 (ip), vehicle: saline): 114 % of control and 95 % of control
- T/C (dose: 50.0 mg/kg/injection, schedule: Q01DX005 (ip), vehicle: Klucel (hydroxypropylcellulose) (HPC)): 86 % of control
- T/C (dose: 50.0 mg/kg/injection, schedule: Q01DX009 (ip), vehicle: saline): 107 % of control
- T/C (dose: 150.0 mg/kg/injection, schedule: Q01DX009 (ip), vehicle: saline): 107 % of control
- T/C (dose: 200.0 mg/kg/injection, schedule: Q01DX009 (ip), vehicle: saline): 109 % of control and 110 % of control
- T/C [14]: 118 % of control
- T/C (dose: 400.0 mg/kg/injection, schedule: Q01DX009 (ip), vehicle: saline): 91 % of control and 116 % of control
- T/C [15]: 113 % of control

SMILES: O=C1c2cc3c(cc2CCC1c1ccc2c(c1)OCO2)OCO3 (centres undefined)
- T/C (dose: 20.0 mg/kg/injection, schedule: Q01DX009 (ip), vehicle: saline with Tween-80): 91 % of control
- T/C (dose: 40.0 mg/kg/injection, schedule: Q01DX009 (ip), vehicle: saline with Tween-80): 91 % of control
- T/C (dose: 120.0 mg/kg/injection, schedule: Q01DX009 (ip), vehicle: saline with Tween-80): 95 % of control
- T/C (dose: 240.0 mg/kg/injection, schedule: Q01DX009 (ip), vehicle: saline with Tween-80): 91 % of control

SMILES: CCCCCCCCC(=O)CCCCC
- T/C [13]: 100 % of control
- T/C [14]: 91 % of control
- T/C [15]: 95 % of control
